Assays:
ALK4 = molecular target: T1, ALK4 (Homo sapiens, UniProt P36896); details: cited from earlier work
T1 sequence (P36896 24-505): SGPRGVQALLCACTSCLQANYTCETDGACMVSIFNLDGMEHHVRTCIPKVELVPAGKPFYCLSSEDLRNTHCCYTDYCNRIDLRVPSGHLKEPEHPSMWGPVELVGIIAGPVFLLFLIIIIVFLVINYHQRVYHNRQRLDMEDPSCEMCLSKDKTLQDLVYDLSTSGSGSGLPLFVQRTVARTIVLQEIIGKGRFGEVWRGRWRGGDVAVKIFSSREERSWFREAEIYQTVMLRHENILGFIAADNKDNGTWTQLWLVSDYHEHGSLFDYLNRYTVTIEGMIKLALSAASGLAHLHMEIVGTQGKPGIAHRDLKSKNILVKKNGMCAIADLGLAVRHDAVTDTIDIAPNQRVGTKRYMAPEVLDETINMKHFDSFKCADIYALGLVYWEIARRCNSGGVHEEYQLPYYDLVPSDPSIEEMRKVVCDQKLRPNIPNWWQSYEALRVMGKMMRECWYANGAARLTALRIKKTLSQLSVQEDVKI

ALK1 = ALK1 (Homo sapiens, UniProt P37023); details: cited from earlier work
ALK2 = molecular target: T2, ALK2 (Homo sapiens, UniProt Q04771); details: cited from earlier work
T2 sequence (Q04771 21-509): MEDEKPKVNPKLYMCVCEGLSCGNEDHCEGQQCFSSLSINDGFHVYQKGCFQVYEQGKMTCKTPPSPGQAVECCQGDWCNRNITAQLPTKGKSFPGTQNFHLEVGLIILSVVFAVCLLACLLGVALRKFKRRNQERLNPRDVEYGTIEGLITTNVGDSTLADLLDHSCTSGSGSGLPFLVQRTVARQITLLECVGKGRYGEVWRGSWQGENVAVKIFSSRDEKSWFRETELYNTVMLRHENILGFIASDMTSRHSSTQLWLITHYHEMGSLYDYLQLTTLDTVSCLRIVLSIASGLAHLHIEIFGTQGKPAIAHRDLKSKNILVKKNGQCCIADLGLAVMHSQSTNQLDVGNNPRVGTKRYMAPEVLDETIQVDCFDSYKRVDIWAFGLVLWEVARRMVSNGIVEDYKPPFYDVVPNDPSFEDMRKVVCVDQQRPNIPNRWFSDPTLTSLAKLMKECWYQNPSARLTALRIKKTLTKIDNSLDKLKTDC

ALK3 = ALK3 (Homo sapiens, UniProt P36894); details: cited from earlier work
ALK6 = ALK6 (Homo sapiens, UniProt O00238); details: cited from earlier work
[1] = system: mouse embryonic fibroblasts (MEF); assay: Induction of SMINS cells / ALP-positive neurospheres from MEF, 6 induction cycles; type: cell-based; details: withdrawal of individual small molecules from the combination
Procedure: (§1) Mouse embryonic fibroblasts (MEF) and mouse adult tail-tip fibroblasts (TTF) were isolated from C57/BL6 mice as described previously^2. Both cell types (ie MEF and TTF) were cultured in MEF medium (Dulbecco's Modified Eagle Medium (DMEM; Invitrogen Corporation, Carlsbad, Calif., United States of America) containing 10% Fetal Bovine Serum (FBS; Thermo Fisher Scientific, Waltham, Mass., United. States of America), 50 units/ml penicillin and 50 μg/ml streptomycin (Invitrogen)). Native NS cells were cultured from mouse brain at E12-E14 as positive controls in neural stem (NS) cell media.
(§2) 35 mm tissue culture dishes were coated with feeder cells (fibroblasts cultured from mouse embryo and seeded at 1.4×10^5 cells per 35 mm tissue culture dish) before induction. The MEF (passage 3) or TTF were seeded at 1.4×10^5 per 35 mm feeder cell-coated dish. The cells were induced in 6 cycles. […] The cells were then cultured in SCM in the absence of the small molecules for the next two days. Then, the cycle was repeated 5 times. Next, the cells were passaged and suspended in a drop of […] containing at least 50 cells for two days. Finally, the cells were cultured in the neural stem (NS) cell medium (DMEM/F12 (Invitrogen) supplemented with B-27 (1:50; Gibco Inc, Billings, Mont., United States of America), 50 units ml^−1 penicillin, 50 μg ml^−1 streptomycin, 8 mM HEPES buffer, 20 ng ml^−1 epidermal growth factor (EGF), 10 ng ml^−1 basic fibroblast growth factor (bFGF) for two weeks.
(§3) ES culture medium (also referred to as SCM herein) was added to NS and SMINS cells overnight. Alkaline phosphatase staining was carried out according to the manufacturer's protocol (Hoffman-La Roche, Basel, Switzerland). For the immunofluorescence staining, cells were washed with phosphate buffered saline (PBS) and then fixed with 4% paraformaldehyde for 10 min. After washing twice with PBS, the cells were permeabilised with 0.1% Triton X-100 for 20 min. Cells were then washed twice and blocked in blocking buffer (a solution of PBS containing 1% FBS and 4% bovine serum albumin (BSA)) for 1 hour. […]

[2] = system: mouse adult tail-tip fibroblasts (TTF); assay: Induction of SMINS cells / ALP-positive neurospheres from TTF; type: cell-based
Procedure: as §1, §2, §3

[3] = system: human umbilical cord fibroblast (HUCF) cells; assay: Immunocytochemistry of cells induced from HUCF; type: cell-based
Procedure: Cells were induced with small molecules (BIX0124 alone or BIX0125 and RG108 in combination) as described above, with cells cultured in HIPS media at Days 2 and 3. Cells were cultured in NSC media for 0, 2 or 6 days as detailed below. Prior to immunofluorescence staining, cells were dissociated with Tryple-E enzyme as described above, and then incubated overnight at low density on poly-D-lysine coated coverslips in HIPS media prior to immunofluorescence staining.
Cells were then washed with PBS and then fixed with 4% paraformaldehyde for 10 min. After washing twice with PBS, cells were permeabilised with 0.1% Triton X-100 for 20 min. Cells were then washed twice and blocked in blocking buffer (a solution of PBS containing 1% FBS and 4% BSA) for 1 hour. Primary antibodies were diluted in blocking buffer in the following dilutions: anti-Sox2 (Millipore, 1:200, mouse), anti-SSEA-1 (Santa Cruz Biotechnology, 1:200, mouse), anti-glial fibrillary acidic protein (GFAP; Dako, 1:400, rabbit), anti-Map2 (Osenses, 1:1000, rabbit), anti-Olig2 (Osenses, 1:1000, rabbit), anti-Alpha-tubulin (Sigma, 1:1000, mouse), anti-neural/glial 2 (Abeam, 1:200), anti-nestin (DHSB, 1:1000), anti-Tuj1 Sigma, 1:300 and applied to the cells for 1 hour at room temperature or overnight at 4° C. Cells were washed three times with PBS and then secondary fluorescent antibodies (1:1000, Cy3 or Alexa-488) and counterstain with 10 μg/ml DAPI were applied for 1 hour at room temperature.
In one experiment, HUCF cells were induced as follows: At passage 17, HUCF cells were negatively selected for p75-NTR and then induced using BIX01294 alone in HIPS media for one day and HIPS media (no small molecules) for two days followed by culture in NSC media for 6 days. Meanwhile control HUCF cells at passage 17 were negatively selected for p75-NTR cells, and then passaged another 5 times. Cells were then stained with mouse anti-p75-NTR-FITC (Biosensis, 1:6, mouse) and counterstained with DAPI as described above.

[4] = system: human umbilical cord fibroblast (HUCF) cells; assay: RT-PCR of cells induced from HUCF; type: cell-based; details: immediately after induction, prior to culture in NSC media
Procedure: mRNA was extracted from cells induced using BIX01294 and RG108 in combination or BIX01294 alone. A cell lysate from SKSY5Y cells (a neuroblastoma cell line) was used as a positive control, and HUCF cells at passage 17 following p75-NTR negative selection was used as a negative control. RT-PCR was performed as described in Example 1 for expression of typical neural stem cell genes GFAP, Sox2, Olig2, Nestin, and pluripotent stem cell genes Oct4 and Nanog, and loading control gene GAPDH using the primers described in Example 1.

[5] = system: human umbilical cord fibroblast (HUCF) cells; assay: Induction of ALP positive colonies from HUCF, single induction cycle; type: cell-based; details: one induction cycle, 7 days in NSC media
Procedure: At passage 17, HUCF cells were labelled with an anti-p75NTR antibody and underwent cell sorting for p75-NTR expression as described below, p75NTR-negative cells were used for all experiments of the induction by small molecules described below. Two hours before induction, p75-NTR^− HUCF were seeded at 1.4×10^5 per 35 mm tissue culture dishes coated with poly-D-lysine. On Day 1, the cells were induced in human induced pluripotent stem cell culture medium (HIPS) (DMEM/F12 supplemented with 25% KSR (Invitrogen), 1% non-essential amino acids (Invitrogen), 1% L-glutamine (Invitrogen), 50 units ml-1 penicillin, 50 μg ml-1 streptomycin, 10 ng ml-1 bFGF, and 0.1 mM β-mercaptoethanol (Invitrogen)) containing various combinations of small molecules as described below. The small molecules were used at the following concentrations: 0.5 μM PD0325901, 0.5 μM PD184352 (Millipore Merck), 72 nM U0216 (Millipore Merck), 0.4 μM RG108. […] 5-aza-2′-deoxycytidine (Millipore Merck) and 1 μM BIX01294. On day 2, the media was replaced with stem cell media (SCM) in the absence of small molecules as described in Example 1, except where indicated, the media was HIPS media in the absence of small molecules. On day 4, the cells were dissociated using 1 ml (1×) Tryple-E enzyme (Invitrogen) and seeded on 35 mm Petri dish with Neural Stem Cell (NSC) media (Neurobasal Medium (Invitrogen) supplemented with 10 ng/m bFGF and EGF with 50 units/ml penicillin, 50 μg/ml streptomycin). Colonies were maintained in NSC media for 7 days to induce neural stem cells unless stated otherwise.
Cells were induced with a combination of small molecules as described above and stained with ALP as described in Example 1, and examined using phase contrast microscopy.

cell reprogramming = details: cited from earlier work

ALK3, sequence (P36894 24-532): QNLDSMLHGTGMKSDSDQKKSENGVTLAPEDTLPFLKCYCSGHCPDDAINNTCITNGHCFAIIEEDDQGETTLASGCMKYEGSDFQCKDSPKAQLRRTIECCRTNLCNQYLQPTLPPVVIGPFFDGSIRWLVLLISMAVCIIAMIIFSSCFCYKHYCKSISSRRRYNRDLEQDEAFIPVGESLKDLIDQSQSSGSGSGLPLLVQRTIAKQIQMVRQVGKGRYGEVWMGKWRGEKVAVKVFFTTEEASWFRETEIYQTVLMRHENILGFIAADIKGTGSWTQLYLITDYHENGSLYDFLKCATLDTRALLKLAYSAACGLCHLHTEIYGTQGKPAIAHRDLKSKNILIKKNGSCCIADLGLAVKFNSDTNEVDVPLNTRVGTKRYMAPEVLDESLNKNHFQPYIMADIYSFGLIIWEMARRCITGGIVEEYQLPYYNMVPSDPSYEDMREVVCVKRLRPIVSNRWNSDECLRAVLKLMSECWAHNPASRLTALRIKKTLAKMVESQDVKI
ALK6, sequence (O00238 14-502): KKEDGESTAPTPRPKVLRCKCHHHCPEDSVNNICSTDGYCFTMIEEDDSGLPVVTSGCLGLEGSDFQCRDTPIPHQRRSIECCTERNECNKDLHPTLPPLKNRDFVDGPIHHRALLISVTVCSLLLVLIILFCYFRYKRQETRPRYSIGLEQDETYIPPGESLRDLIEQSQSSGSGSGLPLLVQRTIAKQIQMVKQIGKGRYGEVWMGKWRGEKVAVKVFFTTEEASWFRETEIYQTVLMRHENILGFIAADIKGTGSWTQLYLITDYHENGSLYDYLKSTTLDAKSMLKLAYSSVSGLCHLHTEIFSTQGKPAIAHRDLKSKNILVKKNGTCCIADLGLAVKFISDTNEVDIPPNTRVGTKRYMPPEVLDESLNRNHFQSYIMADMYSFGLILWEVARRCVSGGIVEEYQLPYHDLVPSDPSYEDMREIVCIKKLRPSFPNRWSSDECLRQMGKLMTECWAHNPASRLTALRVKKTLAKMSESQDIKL
ALK1, sequence (P37023 22-503, species assumed): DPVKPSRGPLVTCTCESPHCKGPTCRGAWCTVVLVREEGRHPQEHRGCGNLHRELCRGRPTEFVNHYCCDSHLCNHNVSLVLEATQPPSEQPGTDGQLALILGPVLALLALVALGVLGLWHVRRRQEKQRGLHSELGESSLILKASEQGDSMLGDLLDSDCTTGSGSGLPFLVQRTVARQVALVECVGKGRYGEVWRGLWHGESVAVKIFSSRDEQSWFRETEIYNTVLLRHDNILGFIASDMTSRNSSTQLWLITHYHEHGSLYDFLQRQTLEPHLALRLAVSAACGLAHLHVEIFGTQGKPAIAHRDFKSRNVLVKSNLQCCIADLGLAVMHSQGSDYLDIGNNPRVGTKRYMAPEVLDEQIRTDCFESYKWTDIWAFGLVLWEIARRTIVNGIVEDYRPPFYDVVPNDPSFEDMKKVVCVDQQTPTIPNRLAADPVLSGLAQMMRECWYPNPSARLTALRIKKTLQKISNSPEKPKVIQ

## Cc1cccc(-c2nn(C(=S)Nc3ccccc3)cc2-c2ccnc3ccccc23)n1 [A83-01, 3-(6-Methyl-2-pyridinyl)-N-phenyl-4-(4-quinolinyl)-1H-pyrazole-1-carbothioamide]
ALK4
  IC50: 0.012 µM
ALK1
  inhibition of ALK1: only weakly inhibits
ALK2
  inhibition of ALK2: only weakly inhibits
ALK3
  inhibition of ALK3: only weakly inhibits
ALK6
  inhibition of ALK6: only weakly inhibits

## COc1cc2nc(N3CCCN(C)CC3)nc(NC3CCN(Cc4ccccc4)CC3)c2cc1OC.Cl.Cl.Cl.O [BIX01294, 2-(hexahydro-4-methyl-1H-1,4-diazepin-1-yl)-6,7-dimethoxy-N-[1-(phenylmethyl)-4-piperidinyl]-4-quinazolinamine trihydrochloride hydrate]
[1]
  essential for generation of SMINS-MEF cells: required for the induction
[2]
  ALP-positive neurosphere produced from TTF: No
[3]; 6 days in NSC media
  expression of neural stem cell marker nestin: additionally express the neural stem cell marker nestin
  p75-NTR staining versus control p75-NTR negative HUCF: marked upregulation
[3]; after culture in NSC media
  expression of NG2, Olig2, GFAP and Tuj1: some BIX01294 induced cells express
[3]; culture in NSC media for 0 or 6 days
  expression of Sox2 and SSEA-1 (immunofluorescence): clearly expressed Sox2 and SSEA-1
[4]
  Sox2 expression (RT-PCR): expressed Sox2 immediately after induction

## O=C(NOCC1CC1)c1ccc(F)c(F)c1Nc1ccc(I)cc1Cl [PD184352, 2-(2-chloro-4-iodo-phenylamino)-N-cyclopropylmethoxy-3,4-difluoro-benzamide]
[5]
  induction of ALP positive colonies from HUCF: induced ALP positive colonies

## O=C(NOCC(O)CO)c1ccc(F)c(F)c1Nc1ccc(I)cc1F (centres unmarked) [PD325901, N-(2,3-dihydroxy-propoxy)-3,4-difluoro-2-(2-fluoro-4-iodo-phenylamino)-benzamide]
[1]
  essential for generation of SMINS-MEF cells: required for the induction
[2]
  ALP-positive neurosphere produced from TTF: Yes
[5]
  induction of ALP positive colonies from HUCF: induced ALP positive colonies

## O=C(O)[C@H](Cc1c[nH]c2ccccc12)N1C(=O)c2ccccc2C1=O [RG108, 1H-Indole-3-propanoic acid, α-(1,3-dihydro-1,3-dioxo-2H-isoindol-2-yl)-, (αS)—]
[1]
  essential for generation of SMINS-MEF cells: required for the induction
[2]
  ALP-positive neurosphere produced from TTF: No

## N#CC(=C(/N)Sc1ccccc1N)/C(C#N)=C(/N)Sc1ccccc1N [U0216]
[5]
  induction of ALP positive colonies from HUCF: induced ALP positive colonies

## CCCC(CCC)C(=O)O [valproic acid]
Cell reprogramming
  improvement of the efficiency of cell reprogramming by some induction processes: at least 100 fold
